Laboratory results as given in ChEMBL document CHEMBL5576123, “Interaction of Cephalosporins with Human Serum Albumin: A Structural Study” (J Med Chem, 2024).
In brackets after ≈: the same amount, converted by molar mass. Activity calls are given as the source filed them. The rule behind the calls is not given here.

How the values were obtained:
[1] = Protein binding in plasma (unknown origin); assay type: ADME, cell-free; settings: read-out: PPB (converted)
Escherichia coli [2] = experiment: Antibacterial activity against Escherichia coli ATCC 25922 assessed as inhibition of bacterial growth at 0.6 mM incubated for 24 hrs by broth microdilution method; assay type: functional, organism-based
Escherichia coli [3] = experiment: Antibacterial activity against Escherichia coli ATCC 25922 assessed as inhibition of bacterial growth incubated for 24 hrs in absence of HSA by broth microdilution method; assay type: functional
Escherichia coli [4] = experiment: Antibacterial activity against Escherichia coli ATCC 25922 assessed as inhibition of bacterial growth incubated for 24 hrs in presence of HSA by broth microdilution method; assay type: functional
Escherichia coli [5] = experiment: Ratio of MIC>90 against Escherichia coli ATCC 25922 in presence of HSA to MIC>90 against Escherichia coli ATCC 25922 in absence of HSA; assay type: functional
Escherichia coli [6] = experiment: Antibacterial activity against Escherichia coli ATCC 25922 assessed as inhibition of bacterial growth at 0 to 8 ug/ml incubated for 24 hrs in presence of HSA by broth microdilution method; assay type: functional, organism-based; settings: dose 0-8 µg/ml
Albumin [7] = biological target: T1, Albumin (Homo sapiens, UniProt P02768); experiment: Binding affinity to human serum albumin incubated for 18 hrs by equilibrium dialysis method; assay type: ADME; settings: isolated protein
T1 sequence (P02768 whole entry): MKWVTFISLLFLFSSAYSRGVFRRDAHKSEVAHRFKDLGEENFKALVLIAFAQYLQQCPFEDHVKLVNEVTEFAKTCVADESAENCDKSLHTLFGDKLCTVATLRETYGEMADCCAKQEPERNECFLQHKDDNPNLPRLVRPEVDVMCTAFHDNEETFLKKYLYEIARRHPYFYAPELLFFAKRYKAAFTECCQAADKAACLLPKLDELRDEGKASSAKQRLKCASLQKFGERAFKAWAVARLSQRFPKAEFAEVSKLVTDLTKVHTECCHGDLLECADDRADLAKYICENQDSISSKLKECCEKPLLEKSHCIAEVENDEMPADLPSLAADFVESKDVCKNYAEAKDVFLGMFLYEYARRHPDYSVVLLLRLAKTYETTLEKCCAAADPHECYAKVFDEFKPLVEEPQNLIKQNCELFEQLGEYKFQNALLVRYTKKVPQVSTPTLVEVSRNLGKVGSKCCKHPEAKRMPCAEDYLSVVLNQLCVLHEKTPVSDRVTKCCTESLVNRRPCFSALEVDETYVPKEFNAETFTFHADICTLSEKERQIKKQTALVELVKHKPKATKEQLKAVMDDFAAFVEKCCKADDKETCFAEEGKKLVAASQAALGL

Albumin [8] = biological target: T1, Albumin; experiment: Binding affinity to human serum albumin incubated for 18 hrs in presence of 40 uM bicalutamide by equilibrium dialysis method; assay type: ADME; settings: isolated protein
Albumin [9] = biological target: T1, Albumin; experiment: Binding affinity to human serum albumin incubated for 18 hrs in presence of 80 uM bicalutamide by equilibrium dialysis method; assay type: ADME; settings: isolated protein
Escherichia coli [10] = experiment: Antibacterial activity against Escherichia coli ATCC 25922 assessed as inhibition of bacterial growth incubated for 24 hrs in presence of warfarin by broth microdilution method; assay type: functional

SMILES	fraction unbound [1]	other results
CO/N=C(\C(=O)N[C@@H]1C(=O)N2C(C(=O)[O-])=C(C[N+]3(C)CCCC3)CS[C@H]12)c1csc(N)n1	0.8	
C=CC1=C(C(=O)O)N2C(=O)[C@@H](NC(=O)/C(=N\O)c3csc(N)n3)[C@H]2SC1	0.3	
CC(O)(CS(=O)(=O)c1ccc(F)cc1)C(=O)Nc1ccc(C#N)c(C(F)(F)F)c1 (centres undefined)		Activity (Escherichia coli [2]): inactive
CCCCC1C(=O)N(c2ccccc2)N(c2ccccc2)C1=O		Activity (Escherichia coli [2]): inactive
CN1C(=O)CN=C(c2ccccc2)c2cc(Cl)ccc21		Activity (Escherichia coli [2]): inactive
N[C@@H](C(=O)N[C@@H]1C(=O)N2C(C(=O)O)=C(Cl)CS[C@H]12)c1ccccc1 [CEFACLOR ANHYDROUS]	0.75	
CC1=C(C(=O)O)N2C(=O)[C@@H](NC(=O)[C@H](N)c3ccc(O)cc3)[C@H]2SC1 [CEFADROXIL]	0.8	
Cc1nnc(SCC2=C(C(=O)O)N3C(=O)[C@@H](NC(=O)Cn4cnnn4)[C@H]3SC2)s1 [CEFAZOLIN]	0.2	MIC90 (Escherichia coli [3]): 2 mg/L (≈ 4.4 µM); MIC90 (Escherichia coli [4]): 4 mg/L; Ratio (Escherichia coli [5]): 2
CO/N=C(\C(=O)N[C@@H]1C(=O)N2C(C(=O)O)=C(/C=C\c3scnc3C)CS[C@H]12)c1csc(N)n1 [CEFDITOREN]	0.12	
C=CC1=C(C(=O)O)N2C(=O)[C@@H](NC(=O)/C(=N\OCC(=O)O)c3csc(N)n3)[C@H]2SC1 [CEFIXIME]	0.35	
CO/N=C(\C(=O)N[C@@H]1C(=O)N2C(C(=O)O)=C(COC(C)=O)CS[C@H]12)c1csc(N)n1 [CEFOTAXIME]	0.5	
CO[C@@]1(NC(=O)C2SC(=C(C(N)=O)C(=O)O)S2)C(=O)N2C(C(=O)O)=C(CSc3nnnn3C)CS[C@@H]21 (some centres undefined) [CEFOTETAN]	0.12	Activity (Escherichia coli [6]): inactive
CO[C@@]1(NC(=O)Cc2cccs2)C(=O)N2C(C(=O)O)=C(COC(N)=O)CS[C@@H]21 [CEFOXITIN]	0.21	
CO/N=C(\C(=O)N[C@@H]1C(=O)N2C(C(=O)[O-])=C(C[n+]3cccc4c3CCC4)CS[C@H]12)c1csc(N)n1 [CEFPIROME]	0.9	
COCC1=C(C(=O)O)N2C(=O)[C@@H](NC(=O)/C(=N\OC)c3csc(N)n3)[C@H]2SC1 [CEFPODOXIME]	0.17	
CC=CC1=C(C(=O)O)N2C(=O)[C@@H](NC(=O)[C@H](N)c3ccc(O)cc3)[C@H]2SC1 [CEFPROZIL]	0.64	
CCO/N=C(\C(=O)N[C@@H]1C(=O)N2C(C(=O)[O-])=C(Sc3nc(-c4cc[n+](C)cc4)cs3)CS[C@H]12)c1nsc(N)n1 [CEFTAROLINE]	0.8	
CC(C)(O/N=C(\C(=O)N[C@@H]1C(=O)N2C(C(=O)[O-])=C(C[n+]3ccccc3)CS[C@H]12)c1csc(N)n1)C(=O)O [CEFTAZIDIME]	0.91	
Nc1nc(/C(=C/CC(=O)O)C(=O)N[C@@H]2C(=O)N3C(C(=O)O)=CCS[C@H]23)cs1 [CEFTIBUTEN]	0.35	
CO/N=C(\C(=O)N[C@@H]1C(=O)N2C(C(=O)O)=CCS[C@H]12)c1csc(N)n1 [CEFTIZOXIME]	0.7	
Nc1nc(/C(=N/O)C(=O)N[C@@H]2C(=O)N3C(C(=O)O)=C(/C=C4\CCN([C@@H]5CCNC5)C4=O)CS[C@H]23)ns1 [CEFTOBIPROLE]	0.84	
Cn1c(N)c(NC(=O)NCCN)c[n+]1CC1=C(C(=O)O)N2C(=O)[C@@H](NC(=O)/C(=N\OC(C)(C)C(=O)[O-])c3nsc(N)n3)[C@H]2SC1 [CEFTOLOZANE]	0.8	
CO/N=C(\C(=O)N[C@@H]1C(=O)N2C(C(=O)O)=C(CSc3nc(=O)c(=O)[nH]n3C)CS[C@H]12)c1csc(N)n1 [CEFTRIAXONE]	0.05	MIC90 (Escherichia coli [3]): ≤ 0.12 mg/L; MIC90 (Escherichia coli [4]): 1 mg/L; K (Albumin [7]): 8.5 10^4/M; K (Albumin [8]): 5.01 10^4/M; K (Albumin [9]): 1.3 10^4/M; MIC90 (Escherichia coli [10]): 0.25 mg/L
CO/N=C(\C(=O)N[C@@H]1C(=O)N2C(C(=O)O)=C(COC(N)=O)CS[C@H]12)c1ccco1 [CEFUROXIME]	0.5	
